From US20200262813A1, “1,5,7-TRISUBSTITUTED ISOQUINOLINE DERIVATIVES, PREPARATION THEREOF, AND USE THEREOF IN MEDICINES” (SHANGHAI HAIYAN PHARMACEUTICAL TECHNOLOGY CO., LTD., priority 2016, published 2020)

These molecules were tested on Pfeiffer cells (assay: Cell proliferation test (cell counting kit-8, 6 days)). Conditions: 6 days' growth.
Assay type: cell-based
Method: Cells were harvested by centrifuge and densities were determined using a CounterStar cell counter. Appropriate number of cells were plated in a 96-well culture plate and incubated overnight. Compounds to be tested were 1:3 diluted for 8 gradient points and added into corresponding wells. After 6 days' growth, cell counting kit-8 (Dojindo) was used to detect cell viability and absorbance values were read on Tecan infinite pro.

| Compound | IC50 [nM] |
| --- | --- |
| CCN(c1cc(-c2ccc(CN3CCN(C)CC3)nc2)cc2c(NCc3c(C)cc(C)[nH]c3=O)nccc12)[C@H]1CC[C@@H](N(C)C)CC1 [Compound Z-58] | 359 |
| CCN(c1cc(-c2ccc(N3CCOCC3)nc2)cc2c(NCc3c(C)cc(C)[nH]c3=O)nccc12)C1CCC(O)CC1 (stereo not shown) [Compound Z-70] | 516 |
| CCN(c1cc(-c2cnc(N3CCOCC3)nc2)cc2c(NCc3c(C)cc(C)[nH]c3=O)nccc12)C1CCN(C2CC2)CC1 [Compound Z-92] | 688 |

The molecules below were run against Recombinant PRC2 (EZH2-Y641F) (Homo sapiens, UniProt Q15910, Y641F) (assay: In vitro methyltransferase activity test (LANCE Ultra)). Conditions: EZH2 Y641F IC50, Recombinant PRC2 (EZH2-Y641F), LANCE Ultra detection, 3 hours reaction.
Recombinant PRC2 (EZH2-Y641F), sequence (Q15910 whole entry Y641F): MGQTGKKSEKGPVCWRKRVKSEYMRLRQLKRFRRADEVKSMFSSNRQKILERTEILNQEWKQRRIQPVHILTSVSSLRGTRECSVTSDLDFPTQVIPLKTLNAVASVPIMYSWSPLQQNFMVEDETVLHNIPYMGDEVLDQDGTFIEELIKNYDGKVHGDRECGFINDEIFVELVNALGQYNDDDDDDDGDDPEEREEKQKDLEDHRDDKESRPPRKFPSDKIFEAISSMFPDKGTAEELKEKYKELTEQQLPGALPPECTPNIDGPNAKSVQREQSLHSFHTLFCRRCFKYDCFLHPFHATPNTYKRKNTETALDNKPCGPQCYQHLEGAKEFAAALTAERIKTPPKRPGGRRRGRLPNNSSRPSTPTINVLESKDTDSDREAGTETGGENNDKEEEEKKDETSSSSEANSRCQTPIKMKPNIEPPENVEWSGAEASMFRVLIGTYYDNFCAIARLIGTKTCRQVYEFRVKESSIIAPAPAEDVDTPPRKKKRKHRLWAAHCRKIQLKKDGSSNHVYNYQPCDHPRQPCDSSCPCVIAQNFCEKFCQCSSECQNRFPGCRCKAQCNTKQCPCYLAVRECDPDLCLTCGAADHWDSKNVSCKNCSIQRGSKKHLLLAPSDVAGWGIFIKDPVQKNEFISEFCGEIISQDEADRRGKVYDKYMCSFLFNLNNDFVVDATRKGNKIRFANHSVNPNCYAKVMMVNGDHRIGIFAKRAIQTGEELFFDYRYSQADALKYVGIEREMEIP
Recombinant PRC2 (EZH2-Y641F), sequence (O75530 whole entry partner): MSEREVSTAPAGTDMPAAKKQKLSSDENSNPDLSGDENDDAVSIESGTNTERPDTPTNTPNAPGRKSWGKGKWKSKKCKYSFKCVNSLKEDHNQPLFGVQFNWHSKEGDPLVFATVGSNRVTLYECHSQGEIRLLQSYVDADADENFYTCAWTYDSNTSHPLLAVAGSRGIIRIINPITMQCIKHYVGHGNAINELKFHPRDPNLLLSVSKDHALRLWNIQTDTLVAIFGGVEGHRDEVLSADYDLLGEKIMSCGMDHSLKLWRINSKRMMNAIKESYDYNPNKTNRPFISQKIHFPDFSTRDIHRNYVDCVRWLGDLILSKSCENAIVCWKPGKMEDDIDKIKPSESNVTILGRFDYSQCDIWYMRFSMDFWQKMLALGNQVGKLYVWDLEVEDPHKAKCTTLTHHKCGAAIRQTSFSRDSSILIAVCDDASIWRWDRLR
Recombinant PRC2 (EZH2-Y641F), sequence (Q15022 whole entry partner): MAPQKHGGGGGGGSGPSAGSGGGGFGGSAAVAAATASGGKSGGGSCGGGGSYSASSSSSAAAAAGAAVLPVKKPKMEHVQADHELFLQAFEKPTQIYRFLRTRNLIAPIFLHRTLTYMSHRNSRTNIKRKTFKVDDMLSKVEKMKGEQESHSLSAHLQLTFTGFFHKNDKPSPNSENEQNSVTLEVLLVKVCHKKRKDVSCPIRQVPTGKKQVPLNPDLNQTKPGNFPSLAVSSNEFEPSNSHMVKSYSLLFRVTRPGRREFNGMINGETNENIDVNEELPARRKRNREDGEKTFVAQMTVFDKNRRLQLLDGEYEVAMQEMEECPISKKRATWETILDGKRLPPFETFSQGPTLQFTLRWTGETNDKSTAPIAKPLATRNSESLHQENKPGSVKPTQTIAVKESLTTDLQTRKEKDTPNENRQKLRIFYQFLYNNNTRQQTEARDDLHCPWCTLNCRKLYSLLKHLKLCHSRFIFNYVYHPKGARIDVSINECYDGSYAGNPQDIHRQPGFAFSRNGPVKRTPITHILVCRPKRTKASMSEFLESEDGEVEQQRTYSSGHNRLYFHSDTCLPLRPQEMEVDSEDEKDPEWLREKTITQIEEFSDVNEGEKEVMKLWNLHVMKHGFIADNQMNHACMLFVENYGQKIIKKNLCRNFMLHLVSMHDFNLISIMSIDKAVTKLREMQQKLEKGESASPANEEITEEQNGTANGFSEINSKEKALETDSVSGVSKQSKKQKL
Recombinant PRC2 (EZH2-Y641F), sequence (Q09028 whole entry partner): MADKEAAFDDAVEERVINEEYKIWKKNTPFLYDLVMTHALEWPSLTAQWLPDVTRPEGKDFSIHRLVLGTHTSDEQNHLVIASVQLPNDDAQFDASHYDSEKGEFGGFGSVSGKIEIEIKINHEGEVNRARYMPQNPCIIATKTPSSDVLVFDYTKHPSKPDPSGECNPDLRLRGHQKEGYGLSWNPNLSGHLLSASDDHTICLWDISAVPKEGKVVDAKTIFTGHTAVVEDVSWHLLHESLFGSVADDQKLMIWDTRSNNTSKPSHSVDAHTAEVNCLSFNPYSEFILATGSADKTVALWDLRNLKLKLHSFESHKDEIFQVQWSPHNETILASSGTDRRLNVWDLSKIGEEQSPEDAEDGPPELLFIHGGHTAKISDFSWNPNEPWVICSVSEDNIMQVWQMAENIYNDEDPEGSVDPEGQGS
Recombinant PRC2 (EZH2-Y641F), sequence (Q6ZN18 whole entry partner): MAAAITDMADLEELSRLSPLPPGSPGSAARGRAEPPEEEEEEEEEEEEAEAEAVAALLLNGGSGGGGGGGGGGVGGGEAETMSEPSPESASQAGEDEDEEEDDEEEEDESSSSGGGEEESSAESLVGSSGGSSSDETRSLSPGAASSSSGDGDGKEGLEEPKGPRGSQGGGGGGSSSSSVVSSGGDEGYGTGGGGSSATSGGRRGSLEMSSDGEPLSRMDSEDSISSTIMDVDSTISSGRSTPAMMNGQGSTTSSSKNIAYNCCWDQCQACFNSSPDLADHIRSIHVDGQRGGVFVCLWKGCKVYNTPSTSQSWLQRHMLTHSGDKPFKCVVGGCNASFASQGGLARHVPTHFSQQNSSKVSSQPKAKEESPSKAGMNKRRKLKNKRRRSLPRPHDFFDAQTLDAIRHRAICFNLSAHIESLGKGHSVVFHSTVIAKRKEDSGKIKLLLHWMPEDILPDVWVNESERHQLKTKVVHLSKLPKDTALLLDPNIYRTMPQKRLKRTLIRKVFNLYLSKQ
Method: In Vitro Methyltransferase Activity Test
Recombinant PRC2 (EZH2-Y641F) was purchased from Active motif, S-adenosyl-methionine (SAM) and Poly-L-lysine (PLL) were purchased from Sigma-Aldrich, H3(1-50)K27mel polypeptide was purchased from Cisbio. LANCEUltra system (Perkinelmer) was used for detection. In the enzyme activity test, a compound to be tested was 1:3 diluted for 8 gradient points, added into a reaction plate, and then added 100 ng recombinant enzyme. And then a buffer [20 mM Tris pH8.5, 2 mM MgCl2, 0.01% Tween-20, 1 mM TCEP] containing 2.5 M SAM/250 nM H3(1-50)K27mel premixture was added to conduct an enzyme reaction at room tempreture. After reacted for 3 hours, a dection solution containing premixed PLL, detection antibody and Ulight was added, reacted for 1 h at RT, then fluorescence was read on Tecan infinite pro. IC50s were calculated by four-factor model fitting in a XLfit software.

| Compound | IC50 [nM] |
| --- | --- |
| CCN(c1cc(Cl)cc2c(NCc3c(C)cc(C)[nH]c3=O)nccc12)C1CCS(=O)(=O)CC1 [Compound Z-139] | 418 |
| CCN(c1cc(Cl)cc2c(NCc3c(C)cc(C)[nH]c3=O)nccc12)C1CCN(C(C)=O)CC1 [Compound Z-144] | 152 |
| CCN(c1cc(Cl)cc2c(NCc3c(C)cc(C)nc3O)nccc12)[C@H]1CC[C@H](N2CC(OC)C2)CC1 [Compound Z-149] | 159 |
| CCN(c1cc(-c2ccc(N3CCNCC3)nc2)cc2c(NCc3c(C)cc(C)[nH]c3=O)nccc12)C1CCOCC1 [Compound Z-151] | 50 |
| CCN(c1cc(-c2ccc(CN3CCNCC3)nc2)cc2c(NCc3c(C)cc(C)[nH]c3=O)nccc12)C1CCOCC1 [Compound Z-152] | 96 |
| CCN(c1cc(-c2ccc(N3CCNCC3)nc2)cc2c(NCc3c(C)cc(C)[nH]c3=O)nccc12)C1CCC(NC(C)=O)CC1 (stereo not shown) [Compound Z-156] | 37 |
| CCN(c1cc(-c2ccc(N3CCNCC3)nc2)cc2c(NCc3c(C)cc(C)[nH]c3=O)nccc12)C1CCC(N(C)C)CC1 (stereo not shown) [Compound Z-157] | 16 |
| CCN(c1cc(-c2ccc(N3CCNCC3)nc2)cc2c(NCc3c(C)cc(C)[nH]c3=O)nccc12)C1CCC(O)CC1 (stereo not shown) [Compound Z-159] | 21 |
| CCN(c1cc(-c2cnc(N3CCNCC3)nc2)cc2c(NCc3c(C)cc(C)[nH]c3=O)nccc12)[C@H]1CC[C@H](N(C)C)CC1 [Compound Z-160] | 6 |
| CCN(c1cc(C(=O)Nc2cccnc2)cc2c(NCc3c(C)cc(C)[nH]c3=O)nccc12)C1CCOCC1 [Compound Z-162] | 253 |
| CCN(c1cc(C(=O)Nc2ccccn2)cc2c(NCc3c(C)cc(C)[nH]c3=O)nccc12)C1CCOCC1 [Compound Z-164] | 371 |
| CCN(c1cc(C(=O)N2CCOCC2)cc2c(NCc3c(C)cc(C)[nH]c3=O)nccc12)C1CCOCC1 [Compound Z-167] | 453 |
| CCN(c1cc(Cl)cc2c(NCc3c(C)cc(C)[nH]c3=O)nccc12)C1CCN(C(=O)CC#N)CC1 [Compound Z-175] | 182 |
| CCN(c1cc(Cl)cc2c(NCc3c(C)cc(C)[nH]c3=O)nccc12)C1CCN(C(=O)CO)CC1 [Compound Z-176] | 139 |
| CCN(c1cc(C#CCN2CCOCC2)cc2c(NCc3c(C)cc(C)[nH]c3=O)nccc12)C1CCN(C(C)=O)CC1 [Compound Z-181] | 226 |
| CCN(c1cc(Nc2cccnc2)cc2c(NCc3c(C)cc(C)[nH]c3=O)nccc12)[C@H]1CC[C@H](N(C)C)CC1 [Compound Z-182] | 504 |
| CCN(c1cc(N2CCN(C)CC2)cc2c(NCc3c(C)cc(C)[nH]c3=O)nccc12)C1CCC(N(C)C)CC1 (stereo not shown) [Compound Z-187] | 213 |
| CCN(c1cc(Oc2ccccc2)cc2c(NCc3c(C)cc(C)[nH]c3=O)nccc12)[C@H]1CC[C@H](N(C)C)CC1 [Compound Z-190] | 472 |
| CCc1cc(C)[nH]c(=O)c1CNc1nccc2c(N(CC)C3CCC(N(C)C)CC3)cc(Cl)cc12 (stereo not shown) [Compound Z-204] | 24 |
| CCN(c1cc(-c2cnc(N3CCN(C)CC3)nc2)cc2c(NCc3c(C)cc(C)[nH]c3=O)nccc12)C1CCC(C)(O)CC1 (stereo not shown) [Compound Z-221, 3-((5-(ethyl(4-hydroxy-4-methylcyclohexyl)amino)-7-(2-(4-methylpiperazin-1-yl)pyrimidin-5-yl)isoquinolin-1-ylamino)methyl)-4,6-dimethyl pyridin-2(1H)-one] | 194 |
| CCN(c1cc(-c2ccc(N3CCN(C)CC3)nc2)cc2c(NCc3c(C)cc(C)[nH]c3=O)nccc12)C1CCC(NC(C)=O)CC1 (stereo not shown) [Compound Z-225, N-(4-((1-((4,6-dimethyl-2-oxo-1,2-dihydropyridin-3-yl)methylamino)-7-(6-(4-methylpiperazin-1-yl)pyridin-3-yl)isoquinolin-5-yl) (ethyl)amino)cyclohexyl) acetamide] | 68 |
| CCN(c1c(F)c(-c2ccc(N3CCN(C)CC3)nc2)cc2c(NCc3c(C)cc(C)nc3O)nccc12)[C@H]1CC[C@@H](N(C)C)CC1 [Compound Z-231, 3-((5-(((1S,4S)-4-(dimethylamino)cyclohexyl) (ethyl)amino)-6-fluoro-7-(6-(4-methylpiperazin-1-yl)pyridin-3-yl)isoquinolin-1-ylamino)methyl)-4,6-dimethyl-2(1H)-one] | 174 |

Results, then the molecule that gave them:

| IC50 [nM] | Compound |
| --- | --- |
| 451 | CCN(c1cc(C(=O)N(C)C2CCN(C)CC2)cc2c(NCc3c(C)cc(C)[nH]c3=O)nccc12)C1CCOCC1 [Compound Z-169] |
| 429 | CCN(c1cc(Cl)cc2c(NCc3c(C)cc(C)[nH]c3=O)nccc12)C1CCN(S(C)(=O)=O)CC1 [Compound Z-229] |
| 374 | CCN(c1cc(C(=O)N(C)C)cc2c(NCc3c(C)cc(C)[nH]c3=O)nccc12)[C@H]1CC[C@H](N(C)C)CC1 [Compound Z-170] |
| 373 | CCN(c1cc(C(C)C)cc2c(NCc3c(C)cc(C)[nH]c3=O)nccc12)[C@H]1CC[C@H](N(C)C)CC1 [Compound Z-214] |
| 367 | CCN(c1cc(-c2ccc(NC3CCN(C)CC3)cc2)cc2c(NCc3c(C)cc(C)[nH]c3=O)nccc12)C1CCOCC1 [Compound Z-158] |
| 365 | CCN(c1cc(-c2ccc(N3CCN(C)CC3)nc2)cc2c(NCc3c(C)n(C)[nH]c3=O)nccc12)C1CCC(N(C)C)CC1 (stereo not shown) [Compound Z-216, 4-((5-((4-(dimethylamino)cyclohexyl)(ethyl)amino)-7-(6-(4-methylpiperazin-1-yl)pyridine-3-yl)isoquinolin-1-ylamino)methyl)-1,5-dimethyl-H-pyrazol-3-(2H)-one] |
| 348 | CCN(c1cc(C#CCN2CCOCC2)cc2c(NCc3c(C)cc(C)[nH]c3=O)nccc12)C1CCOCC1 [Compound Z-178] |
| 331 | CCN(c1cc(C(=O)NC)cc2c(NCc3c(C)cc(C)[nH]c3=O)nccc12)C1CCOCC1 [Compound Z-161] |
| 307 | CCN(c1cc(N2CCN(C3CCOCC3)CC2)cc2c(NCc3c(C)cc(C)[nH]c3=O)nccc12)C1CCC(N(C)C)CC1 (stereo not shown) [Compound Z-189] |
| 206 | CCN(c1cc(-c2ccc(N3CCN(C)CC3)nc2)cc2c(NCc3c(OC)cc(C)[nH]c3=O)nccc12)C1CCN(C(C)C)CC1 [Compound Z-191] |
| 203 | CCN(c1cc(Cl)cc2c(NCc3c(C)cc(C)[nH]c3=O)nccc12)C1CCC(N(C)CCOC)CC1 (stereo not shown) [Compound Z-145] |
| 185 | CCN(c1cc(C2CCN(C)CC2)cc2c(NCc3c(C)cc(C)[nH]c3=O)nccc12)C1CCC(O)CC1 (stereo not shown) [Compound Z-212] |
| 159 | CCN(c1cc(-c2cn[nH]c2)cc2c(NCc3c(C)cc(C)[nH]c3=O)nccc12)C1CCC(N(C)C)CC1 (stereo not shown) [Compound Z-155] |
| 129 | CCN(c1cc(C(C)C)cc2c(NCc3c(C)cc(C)[nH]c3=O)nccc12)C1CCNCC1 [Compound Z-235, 3-((5-(ethyl (piperidin-4-yl)amino)-7-isopropylisoquinolin-1-ylamino)methyl)-4,6-dimethyl-2(1H)-one] |
| 81 | CCN(c1cc(C(=O)NC2CCN(C)CC2)cc2c(NCc3c(C)cc(C)[nH]c3=O)nccc12)C1CCC(N(C)C)CC1 (stereo not shown) [Compound Z-172] |
| 64 | CCN(c1cc(C(N)=O)cc2c(NCc3c(C)cc(C)[nH]c3=O)nccc12)[C@H]1CC[C@H](N(C)C)CC1 [Compound Z-227, 1-((4,6-dimethyl-2-oxo-1,2-dihydropyridin-3-yl)methylamino)-5-(((1R,4R)-4-(dimethylamino)cyclohexyl) (ethyl)amino) isoquinoline-7-carboxamide] |
| 54 | CCN(c1cc(-c2ccc(CN3CCNCC3)cc2)cc2c(NCc3c(C)cc(C)[nH]c3=O)nccc12)C1CCC(N(C)C)CC1 (stereo not shown) [Compound Z-153] |
| 45 | CCN(c1cc(-c2ccc(N3CCN(C)CC3)nc2)cc2c(NCc3c(C)cc(C)[nH]c3=O)ncc(F)c12)C1CCC(N(C)C)CC1 (stereo not shown) [Compound Z-223, 3-((5-((4-(dimethylamino)cyclohexyl)(ethyl)amino)-4-fluoro-7-(6-(4-methylpiperazin-1-yl)pyridin-3-yl)isoquinolin-1-ylamino)methyl)-4,6-dimethyl-2(1H)-one] |
| 35 | CCN(c1cc(Cl)cc2c(NCc3c(C)cc(C)[nH]c3=O)nccc12)C1CCC(N2CCC2)CC1 (stereo not shown) [Compound Z-205] |
| 33 | CCN(c1cc(C(=O)NC2CCN(C)CC2)cc2c(NCc3c(C)cc(C)[nH]c3=O)nccc12)C1CCOCC1 [Compound Z-163] |
| 32 | CCN(c1cc(Cl)cc2c(NCc3c(C)cc(C)[nH]c3=O)nccc12)C1CC2(CNC2)C1 [Compound Z-207] |
| 19 | CCN(c1cc(-c2ccc(CN3CCNCC3)nc2)cc2c(NCc3c(C)cc(C)[nH]c3=O)nccc12)C1CCC(N(C)C)CC1 (stereo not shown) [Compound Z-154] |
| 15 | CCN(c1cc(C(=O)NC)cc2c(NCc3c(C)cc(C)[nH]c3=O)nccc12)[C@H]1CC[C@H](N(C)C)CC1 [Compound Z-166] |

Same assay, conditions: read-out: EZH2 Y641F IC50; Recombinant PRC2 (EZH2-Y641F), LANCE Ultra detection, 3 hours reaction

| Compound | IC50 [nM] |
| --- | --- |
| CCN(c1cc(Oc2cccnc2)cc2c(NCc3c(C)cc(C)[nH]c3=O)nccc12)[C@H]1CC[C@H](N(C)C)CC1 [Compound Z-188] | 112 |
